From patent publication US20190185865A1, “USE OF PROKARYOTIC TRANSCRIPTIONAL ACTIVATORS AS METABOLITE BIOSENSORS IN EUKARYOTIC CELLS” (Danmarks Tekniske Universitet, priority 2016, published 2019)
“And” between values parts separate entries of the source, which are not always exact repeats. Identical values can stand only once.

Legend:
BenM^H110R, F211V, Y286N [1] = molecular target: T1, BenM^H110R, F211V, Y286N (Acinetobacter baylyi, UniProt O68014, F211V/H110R/Y286N); assay: CCM-induced GFP expression in yeast expressing engineered BenM variants (epPCR library, FACS, flow cytometry); type: cell-based, Saccharomyces cerevisiae
T1 construct: expressed in transfected cells; host or cells: Saccharomyces cerevisiae; centromeric plasmid (gap repair) or chromosomal integration, REV1p
From the text: For optimization of the CCM inducibility of BenM, purified products from three consecutive rounds of error-prone PCR (epPCR) of the effector-binding domain (EBD, residues 90-304) of BenM, were co-transformed into yeast together with linearized centromeric plasmid according to Eckert-Boulet et al. (Eckert-Boulet, N., Pedersen, M. L., Krogh, B. O. & Lisby, M. Optimization of ordered plasmid assembly by gap repair in Saccharomyces cerevisiae. Yeast 29, 323-34 (2012)), to allow for in vivo gap repair and library reconstitution of wild-type BenM DNA binding domain (DBD) fused to EBD variants expressed from REV1p. For epPCR we used the GeneMorph II kit according to manufacturer's description (Agilent Technologies). Transformed yeast contained a chromosomal integration of the 209 bp_CYC1p_BenO_T1 promoter controlling the expressing of GFP at EasyClone site 4 on chromosome XII (Mikkelsen, M. D. et al. Microbial production of indolylglucosinolate through engineering of a multi-gene pathway in a versatile yeast expression platform. Metab. Eng. 14, 104-11 (2012)), to allow for FACS-based screening of improved CCM-inducible BenM variants.
A two-step method was used to sort for BenM variants that specifically induce in the presence of CCM. Cells (10× library size, approx. 400,000 cells) were inoculated in mineral medium without inducer and incubated for 24 h at 30° C., diluted into PBS, and then GFP intensity of individual cells was measured using a BD Biosciences Aria (Becton Dickinson) with a blue laser (488 nm) by applying tight gates on the FSC and SSC channels. Only cells displaying auto-fluorescence intensities were sorted in order to limit auto-activating BenM variants. Sorted cells were recovered in mineral medium, followed by subculturing (1:100) into mineral medium containing 1.4 mM (200 mg/L) cis,cis-muconic acid. The cells were grown for 24 h at 30° C., washed and subjected to a second round of FACS. […] Individual clones were subsequently validated using flow cytometry.
Events were analyzed using FlowJo software (TreeStar Inc.).

BenM^H110R, F211V, Y286N [2] = molecular target: T1, BenM^H110R, F211V, Y286N; assay: CCM biosensor output versus CCM titers in CCM-producing yeast strains (HPLC, flow cytometry); type: cell-based
Experimental: The CCM production strains were cultivated in 24-deep well plate with air-penetrable lids (EnzyScreen) to test for the production of CCM. Colonies from the individual strain were inoculated in 1 mL synthetic drop-out medium (Sigma-Aldrich), selecting for URA, HIS and LEU markers, and grown at 30° C. with 250 rpm agitation at 5 cm orbit cast for 24 h. 300 μL of the overnight cultures were used to inoculate 3 mL mineral medium (pH 4.5) in 24-deep well plate and incubated for 24-72 h at the same conditions as above. Experiments were performed in triplicates. The culture broth was centrifuged 3,500×rpm and the supernatant analyzed for CCM concentration using HPLC. For this purpose, samples were analyzed for 45 min using Aminex HPX-87H ion exclusion column with a 1 mM H2SO4 flow of 0.6 mL/min. The temperature of the column was 60° C. Refractive index and UV detectors (Dionex) were used for detection of CCM (250 nm). CCM concentrations were quantified by comparison with the spectrum of the standards. […] Naringenin was quantified using a quadratic calibration curve with authentic standards ranging from 0.039 mg/I to 20 mg/I using QuanLynx software (Waters).
Events were analyzed using FlowJo software (TreeStar Inc.). […]

T1 sequence (O68014 whole entry H110R/F211V/Y286N): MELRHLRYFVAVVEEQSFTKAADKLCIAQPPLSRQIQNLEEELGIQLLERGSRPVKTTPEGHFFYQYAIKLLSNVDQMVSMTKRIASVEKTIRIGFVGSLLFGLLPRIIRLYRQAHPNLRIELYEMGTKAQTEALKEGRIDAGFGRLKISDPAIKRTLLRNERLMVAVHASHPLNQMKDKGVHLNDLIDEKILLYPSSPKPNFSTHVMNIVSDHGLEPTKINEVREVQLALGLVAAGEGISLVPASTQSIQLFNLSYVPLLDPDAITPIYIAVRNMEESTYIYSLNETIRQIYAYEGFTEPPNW

O=C(O)/C=C\C=C/C(=O)O [CCM, cis, cis-muconic acid] was tested, and the “specificity of GFP induction among diacids tested” value (BenM^H110R, F211V, Y286N [1]; BenM^H110R, diacids 1.4 mM, pH 4.5, 24 h) was “induce GFP expression specifically in response to CCM”, the “maximum induction of GFP output” value (BenM^H110R, F211V, Y286N [1]; chromosomally integrated BenM^H110R, 1.4 mM (200 mg/L) CCM, 24 h) was 10 fold and the “GFP output upon CCM induction” value (BenM^H110R, F211V, Y286N [1]; plasmid-based expression of BenM^H110R) was 6 fold. The “titers at which GFP outputs were saturated” value (BenM^H110R, F211V, Y286N [2]; 72 h of cultivation) was > 1.41 mM and > 200 mg/L and the “correlation (r) between GFP output and CCM production titers” value (BenM^H110R, F211V, Y286N [2]; six CCM production strains and null strain, 24 h) was 0.98.
